Assay [1] has as its system a variety of test species. As to the kind of experiment: Pre-emergence herbicidal activity (Example 8a, Table 2). It counts as in vivo. Details: key: 0 = no damage to plant, 5 = total damage to plant. The following applies: application pre-emergence, rate 1000 g/ha, evaluated after 13 days. In short, it runs like this: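 Damage was rated 13 days after treatment on a 0–5 scale (0 = no damage, 5 = total damage). Pots of seeds in standard soil were sprayed one day after sowing with an aqueous solution from an acetone/water (50:50), 0.5% Tween 20 formulation and kept at 24/16 °C day/night.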

In assay [2] the test system is a variety of test species. As to the kind of experiment: Post-emergence herbicidal activity (Example 8b, Table 3). It counts as in vivo. The following applies: application post-emergence, rate 1000 g/ha, evaluated after 13 days, scale 0-5; for Herbicidal damage score, ZEAMX: Zea mays; for Herbicidal damage score, ABUTH: Abutilon theophrasti; for Herbicidal damage score, ALOMY: Alopecurus myosuroides; for Herbicidal damage score, AMARE: Amaranthus retroflexus; for Herbicidal damage score, ECHCG: Echinochloa crus-galli; for Herbicidal damage score, SETFA: Setaria faberi. In a few lines: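 Seeds were sown in standard soil and cultivated for 8 days under controlled glasshouse conditions. Seedlings were then sprayed with an aqueous solution of the formulated compound containing 0.5% Tween 20. Injury was rated after a further 13 days, where 5 indicated total damage.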

On to `C=CCC(C)(C)c1cc(N2C(=O)C(Cl)=C(C)C2O)nn1C` (stereo not shown) [Compound B23], for which, in assay [1], the “Pre-emergence herbicidal activity, damage score ALOMY” value stood at 4; the “Pre-emergence herbicidal activity, damage score ECHCG” value turned out to be 4; the “Pre-emergence herbicidal activity, damage score ZEAMX” value was found to be 4. For the same molecule, in assay [2], the “Herbicidal damage score, ZEAMX” value is on record as 4.
For the molecule `CC1=C(Cl)C(=O)N(c2cc(Cc3ccccc3)n(C)n2)C1O` (stereo not shown) [Compound B24], in assay [1], the “Pre-emergence herbicidal activity, damage score ABUTH” value was 3; the “Pre-emergence herbicidal activity, damage score ALOMY” value is 3; the “Pre-emergence herbicidal activity, damage score AMARE” value was 3; the “Pre-emergence herbicidal activity, damage score ECHCG” value is 3. In addition, in assay [1], the “Pre-emergence herbicidal activity, damage score SETFA” value turned out to be 3 and the “Pre-emergence herbicidal activity, damage score ZEAMX” value was 0. Moreover, in assay [2], the “Herbicidal damage score, ABUTH” value is recorded as 5; the “Herbicidal damage score, ALOMY” value stood at 4; the “Herbicidal damage score, AMARE” value is 5; the “Herbicidal damage score, ECHCG” value was determined as 5. In assay [2], the “Herbicidal damage score, SETFA” value was found to be 5 and the “Herbicidal damage score, ZEAMX” value is 1.
Regarding `CC1=C(Cl)C(=O)N(c2cc(C#CC(C)(C)C)n(C)n2)C1O` (stereo not shown) [Compound B25], in assay [1], the “Pre-emergence herbicidal activity, damage score ABUTH” value was 0; the “Pre-emergence herbicidal activity, damage score ALOMY” value is reported as 0; the “Pre-emergence herbicidal activity, damage score AMARE” value worked out at 2; the “Pre-emergence herbicidal activity, damage score ECHCG” value stood at 0. Also, in assay [1], the “Pre-emergence herbicidal activity, damage score SETFA” value was determined as 0 and the “Pre-emergence herbicidal activity, damage score ZEAMX” value is given as 0. Further, in assay [2], the “Herbicidal damage score, ABUTH” value was determined as 3; the “Herbicidal damage score, ALOMY” value was found to be 1; the “Herbicidal damage score, AMARE” value stood at 3; the “Herbicidal damage score, ECHCG” value is on record as 1. Also, in assay [2], the “Herbicidal damage score, SETFA” value came to 1 and the “Herbicidal damage score, ZEAMX” value is reported as 0.
For `CC1=C(Cl)C(=O)N(c2cc(CCC(C)C)n(C)n2)C1O` (stereo not shown) [Compound B27], in assay [1], the “Pre-emergence herbicidal activity, damage score ABUTH” value was 3; the “Pre-emergence herbicidal activity, damage score ALOMY” value was found to be 1; the “Pre-emergence herbicidal activity, damage score AMARE” value is 5; the “Pre-emergence herbicidal activity, damage score ECHCG” value is reported as 4. Further, in assay [1], the “Pre-emergence herbicidal activity, damage score SETFA” value came to 3 and the “Pre-emergence herbicidal activity, damage score ZEAMX” value turned out to be 2. Moreover, in assay [2], the “Herbicidal damage score, ABUTH” value was found to be 3; the “Herbicidal damage score, ALOMY” value was found to be 1; the “Herbicidal damage score, AMARE” value came out at 2; the “Herbicidal damage score, ECHCG” value turned out to be 5. In assay [2], the “Herbicidal damage score, SETFA” value is on record as 5 and the “Herbicidal damage score, ZEAMX” value is listed as 0.
As for `CCC1=C(Cl)C(=O)N(c2ccn(C)n2)C1O` (stereo not shown) [Compound B28], in assay [1], the “Pre-emergence herbicidal activity, damage score ABUTH” value turned out to be 0; the “Pre-emergence herbicidal activity, damage score ALOMY” value came out at 0; the “Pre-emergence herbicidal activity, damage score AMARE” value worked out at 0; the “Pre-emergence herbicidal activity, damage score ECHCG” value turned out to be 0. Moreover, in assay [1], the “Pre-emergence herbicidal activity, damage score SETFA” value is 0 and the “Pre-emergence herbicidal activity, damage score ZEAMX” value turned out to be 0. For the same molecule, in assay [2], the “Herbicidal damage score, ABUTH” value turned out to be 0; the “Herbicidal damage score, ALOMY” value stood at 0; the “Herbicidal damage score, AMARE” value is reported as 0; the “Herbicidal damage score, ECHCG” value was 0. Further, in assay [2], the “Herbicidal damage score, SETFA” value amounted to 0 and the “Herbicidal damage score, ZEAMX” value was determined as 0.
As to `CC1=C(Cl)C(=O)N(c2cc(C#CC(C)C)n(C)n2)C1O` (stereo not shown) [Compound B29], in assay [1], the “Pre-emergence herbicidal activity, damage score ABUTH” value worked out at 0; the “Pre-emergence herbicidal activity, damage score ALOMY” value is 0; the “Pre-emergence herbicidal activity, damage score AMARE” value is recorded as 2; the “Pre-emergence herbicidal activity, damage score ECHCG” value was 0. For the same molecule, in assay [1], the “Pre-emergence herbicidal activity, damage score SETFA” value worked out at 0 and the “Pre-emergence herbicidal activity, damage score ZEAMX” value is recorded as 0. Also, in assay [2], the “Herbicidal damage score, ABUTH” value came out at 0; the “Herbicidal damage score, ALOMY” value is on record as 0; the “Herbicidal damage score, AMARE” value is 0; the “Herbicidal damage score, ECHCG” value came to 2. In assay [2], the “Herbicidal damage score, SETFA” value is 2 and the “Herbicidal damage score, ZEAMX” value is recorded as 0.
As for `CC1=C(Cl)C(=O)N(c2cc(C#CCC(C)C)n(C)n2)C1O` (stereo not shown) [Compound B30], in assay [1], the “Pre-emergence herbicidal activity, damage score ABUTH” value is 0; the “Pre-emergence herbicidal activity, damage score ALOMY” value was 0; the “Pre-emergence herbicidal activity, damage score AMARE” value is on record as 2; the “Pre-emergence herbicidal activity, damage score ECHCG” value amounted to 0. In assay [1], the “Pre-emergence herbicidal activity, damage score SETFA” value is 0 and the “Pre-emergence herbicidal activity, damage score ZEAMX” value is recorded as 0. Further, in assay [2], the “Herbicidal damage score, ABUTH” value stood at 3; the “Herbicidal damage score, ALOMY” value is listed as 0; the “Herbicidal damage score, AMARE” value was 3; the “Herbicidal damage score, ECHCG” value came to 0. In assay [2], the “Herbicidal damage score, SETFA” value came to 2 and the “Herbicidal damage score, ZEAMX” value amounted to 0.
Regarding `CCOC(C)(CC)c1cc(N2C(=O)C(Cl)=C(C)C2O)nn1C` (stereo not shown) [Compound B32], in assay [1], the “Pre-emergence herbicidal activity, damage score ABUTH” value was determined as 5; the “Pre-emergence herbicidal activity, damage score ALOMY” value was 4; the “Pre-emergence herbicidal activity, damage score AMARE” value was determined as 5; the “Pre-emergence herbicidal activity, damage score ECHCG” value is given as 5. Besides, in assay [1], the “Pre-emergence herbicidal activity, damage score SETFA” value is recorded as 5 and the “Pre-emergence herbicidal activity, damage score ZEAMX” value turned out to be 4. Also, in assay [2], the “Herbicidal damage score, ABUTH” value is reported as 5; the “Herbicidal damage score, ALOMY” value was determined as 5; the “Herbicidal damage score, AMARE” value was determined as 5; the “Herbicidal damage score, ECHCG” value turned out to be 5. Further, in assay [2], the “Herbicidal damage score, SETFA” value is given as 5 and the “Herbicidal damage score, ZEAMX” value is given as 4.
Take `CCC(C)c1cc(N2C(=O)C(Cl)=C(C)C2O)nn1C` (stereo not shown) [Compound B33]: in assay [1], the “Pre-emergence herbicidal activity, damage score ABUTH” value was 5; the “Pre-emergence herbicidal activity, damage score ALOMY” value is given as 4; the “Pre-emergence herbicidal activity, damage score AMARE” value is on record as 5; the “Pre-emergence herbicidal activity, damage score ECHCG” value is on record as 5. In assay [1], the “Pre-emergence herbicidal activity, damage score SETFA” value turned out to be 5 and the “Pre-emergence herbicidal activity, damage score ZEAMX” value was 4. Besides, in assay [2], the “Herbicidal damage score, ABUTH” value stood at 5; the “Herbicidal damage score, ALOMY” value is 5; the “Herbicidal damage score, AMARE” value was determined as 5; the “Herbicidal damage score, ECHCG” value is on record as 5. In addition, in assay [2], the “Herbicidal damage score, SETFA” value is on record as 5 and the “Herbicidal damage score, ZEAMX” value is given as 5.
In the case of `CC#Cc1cc(N2C(=O)C(Cl)=C(C)C2O)nn1C` (stereo not shown) [Compound B35], in assay [1], the “Pre-emergence herbicidal activity, damage score ABUTH” value was 3; the “Pre-emergence herbicidal activity, damage score ALOMY” value is recorded as 1; the “Pre-emergence herbicidal activity, damage score AMARE” value is reported as 5; the “Pre-emergence herbicidal activity, damage score ECHCG” value is given as 4. In addition, in assay [1], the “Pre-emergence herbicidal activity, damage score SETFA” value was 3 and the “Pre-emergence herbicidal activity, damage score ZEAMX” value turned out to be 0. Also, in assay [2], the “Herbicidal damage score, ABUTH” value worked out at 4; the “Herbicidal damage score, ALOMY” value came to 1; the “Herbicidal damage score, AMARE” value amounted to 1; the “Herbicidal damage score, ECHCG” value came to 4. Also, in assay [2], the “Herbicidal damage score, SETFA” value is 4 and the “Herbicidal damage score, ZEAMX” value turned out to be 0.
Consider `CSc1cc(N2C(=O)C(Cl)=C(C)C2O)nn1C` (stereo not shown) [Compound B36], for which, in assay [1], the “Pre-emergence herbicidal activity, damage score ABUTH” value is 5; the “Pre-emergence herbicidal activity, damage score ALOMY” value came out at 3; the “Pre-emergence herbicidal activity, damage score AMARE” value was 5; the “Pre-emergence herbicidal activity, damage score ECHCG” value came out at 5. In assay [1], the “Pre-emergence herbicidal activity, damage score SETFA” value came out at 5 and the “Pre-emergence herbicidal activity, damage score ZEAMX” value was 2. In assay [2], the “Herbicidal damage score, ABUTH” value was found to be 5; the “Herbicidal damage score, ALOMY” value was 4; the “Herbicidal damage score, AMARE” value is reported as 5; the “Herbicidal damage score, ECHCG” value worked out at 5. Also, in assay [2], the “Herbicidal damage score, SETFA” value is reported as 5 and the “Herbicidal damage score, ZEAMX” value turned out to be 5.
Regarding `CC1=C(Cl)C(=O)N(c2cc(S(C)(=O)=O)n(C)n2)C1O` (stereo not shown) [Compound B38], in assay [1], the “Pre-emergence herbicidal activity, damage score ABUTH” value is 5; the “Pre-emergence herbicidal activity, damage score ALOMY” value worked out at 4; the “Pre-emergence herbicidal activity, damage score AMARE” value came to 5; the “Pre-emergence herbicidal activity, damage score ECHCG” value amounted to 5. Moreover, in assay [1], the “Pre-emergence herbicidal activity, damage score SETFA” value amounted to 5 and the “Pre-emergence herbicidal activity, damage score ZEAMX” value worked out at 4. In assay [2], the “Herbicidal damage score, ABUTH” value is recorded as 5; the “Herbicidal damage score, ALOMY” value turned out to be 5; the “Herbicidal damage score, AMARE” value is on record as 5; the “Herbicidal damage score, ECHCG” value worked out at 5. Besides, in assay [2], the “Herbicidal damage score, SETFA” value stood at 5 and the “Herbicidal damage score, ZEAMX” value was determined as 5.
For `CC1=C(Cl)C(=O)N(c2cc(C(C)C(F)(F)F)n(C)n2)C1O` (stereo not shown) [Compound B39], in assay [1], the “Pre-emergence herbicidal activity, damage score ABUTH” value worked out at 5; the “Pre-emergence herbicidal activity, damage score ALOMY” value is 4; the “Pre-emergence herbicidal activity, damage score AMARE” value amounted to 5; the “Pre-emergence herbicidal activity, damage score ECHCG” value came out at 5. Moreover, in assay [1], the “Pre-emergence herbicidal activity, damage score SETFA” value was 5 and the “Pre-emergence herbicidal activity, damage score ZEAMX” value was 4. In assay [2], the “Herbicidal damage score, ABUTH” value came out at 5; the “Herbicidal damage score, ALOMY” value is recorded as 5; the “Herbicidal damage score, AMARE” value is recorded as 5; the “Herbicidal damage score, ECHCG” value is given as 5. In assay [2], the “Herbicidal damage score, SETFA” value turned out to be 5 and the “Herbicidal damage score, ZEAMX” value was determined as 5.

The values are drawn from patent US9605004B2, “Chemical compounds” (SYNGENTA LIMITED, priority 2013, dated 2017).
